The values below come from patent US5639887A, “MDR reversal agents” (priority 1995, dated 1997).

Where a name gives a salt, the structure may show the parent alone.

The test system of data set [1] is vincristine resistant murine leukemia P388/VCR. Briefly: In vivo evaluation of MDR-1 reversal agents against vincristine resistant murine leukemia P388/VCR implanted IP in CDF1 mice. Conditions: vincristine 0.2 + compound 6.3 mg/kg, days 1-7, IP. On the procedure:
Tumor cell ascites are harvested 5-7 days later. For drug testing, groups of 10-15 CDF1 mice (DBA/2×Balb/cF1 hybrids; Charles River Laboratories, Inc) are injected IP with 0.5 ml of diluted ascitic fluid containing 1×10^6 viable P388/VCR tumor cells. […] Drugs are administered once daily, by the IP, intravenous (IV) or oral route, starting one day after tumor implantation and using a variety of treatment schedules. Mice are weighed periodically, survival is recorded for 30 days post tumor implantation, and Mean survival times are calculated for all groups of mice. Statistical analysis of Mean survival times is carried out using the Student t-test.

Data set [2] concerns human epidermoid carcinoma KB/8.5. Nature of the data set: In vivo evaluation of MDR-1 reversal agents against human epidermoid carcinoma KB/8.5 implanted SC in athymic nude mice. Further details: species or system human (tumor in athymic nude mice). On the procedure: The multiple drug resistant human epidermoid carcinoma KB/8.5 is propagated in medium containing colchicine (10 nanograms/ml) to maintain drug resistance. Colchicine is removed from the medium, for two cell passages, prior to subcutaneous (SC) implant of 8×10^6 KB/8.5 tumor cells into athymic "nude" mice (Harlan Sprague Dawley). […] Individual mouse tumor mass and mean tumor mass for each treatment group is determined on Day +14 and Day +21 of the test period. For each treatment group, the Relative Tumor Growth, RTG, is calculated as follows: [formula]
Statistical analysis of Log Relative Tumor Growth is carried out using the Student t-test. Transformation of the data from absolute mean tumor mass (mgs tumor mass) to Log Relative Tumor Growth prior to statistical analysis has two beneficial effects:
1) it corrects the data for differences in mean tumor mass of the different treatment groups at the start of the test period (Day 0); and
2) the Log transformation of the data more adequately reflects the exponential growth pattern of the SC tumors and makes the use of the Student t-test more appropriate.

The mark [3] stands for this setting: doxorubicin 8 mg/kg IV + compound 25 mg/kg/dose SC at -2 h and +2 h.
Setting [4] is: doxorubicin 8 mg/kg IV + compound 50 mg/kg/dose SC at -2 h and +2 h.
[5] abbreviates: doxorubicin 8 mg/kg IV + compound 100 mg/kg/dose SC at -2 h and +2 h.
Where [6] appears, read: doxorubicin 8 mg/kg IV + compound 150 mg/kg/dose SC at -2 h and +2 h.
Where [7] appears, read: doxorubicin 8 mg/kg IV + compound […] SC at -2 h and +2 h.
Setting [8] is: doxorubicin 8 mg/kg IV + compound 200 mg/kg/dose SC at -2 h and +2 h.
Where [9] appears, read: doxorubicin 8 mg/kg IV + compound 200 mg/kg/dose SC x2.

Consider `COc1ccc(C(C#N)(CCN2CCc3cc(OC)c(OC)cc3C2)Sc2ccc(C)cc2)cc1OC` (stereo not drawn) [Example 9, α-(3,4-Dimethoxyphenyl)-3,4-dihydro-6,7-dimethoxy-α-[(4-methylphenyl)thio]-2(1H]-isoquinolinebutanenitrile], for which, in data set [1], the MST turned out to be 16.4 days. Moreover, the “% ILS” value in data set [1] (vs vincristine alone) is given as “+10%”.

Turning to `COc1ccc(C(C#N)(CCCCCN2Cc3cc(OC)c(OC)cc3C2)Sc2ccc(C)cc2)cc1OC.Cl` (stereo not drawn) [Example 27, α-(3,4-Dimethoxyphenyl)-1,3-dihydro-5,6-dimethoxy-α-[(4-methylphenyl)thio]-2H-isoindole-2-heptanenitrile hydrochloride], the “Relative Tumor Growth Day 21” value in data set [2] (setting [3]) is 10.30; in data set [2] (setting [4]), 9.55; in data set [2] (setting [5]) it was 6.39; in data set [2] (setting [6]), “Toxic”; in data set [2] (setting [7]) it was 9.66. For the same compound, in data set [2] (setting [6]), the “Relative Tumor Growth Day 14” value is “Toxic”.

Consider `COc1ccc(C(C#N)(CCCCCN2CCc3cc(OC)c(OCCCl)cc3C2)Sc2ccc(C)cc2)cc1OC` (stereo not drawn) [Example 32, 7-(2-Chloroethoxy)-α-(3,4-dimethoxyphenyl)-3,4-dihydro 6-methoxy-α-[(4-methylphenyl)thio]-2(1H)-isoquinoline heptanenitrile], for which the figures for the “Relative Tumor Growth Day 21” value in data set [2] (setting [3]) and in data set [2] (setting [7]) were 11.30 and 19.93, respectively.

For the compound `COc1ccc(C(CCCCCN2CCc3cc4c(cc3C2)OCO4)Sc2ccc(C)cc2)cc1OC` (stereo not shown) [Example 47], the “Relative Tumor Growth Day 21” value is 9.73 in data set [2] (setting [3]); 16.54 in data set [2] (setting [4]); 10.09 in data set [2] (setting [5]); 11.04 in data set [2] (setting [8]); 17.53 in data set [2] (setting [7]).

`COc1ccc(C(CCCCCCN2Cc3cc(OC)c(OC)cc3C2)Sc2ccc(C)cc2)cc1OC` (stereo not shown) [Example 49, 2-[7-(3,4-Dimethoxyphenyl]-7-[(4-methylphenyl]thio]-beptyl]-2,3-dihydro-5,6-dimethoxy-1H-isotndole]: the “Relative Tumor Growth Day 21” value in data set [2] (setting [3]) came out at 5.04; in data set [2] (setting [7]), 6.41.

On to `COc1ccc(C(CCCCCCN2CCc3cc(OC)c(OC)cc3C2)Sc2ccc(C)cc2)cc1OC` (stereo not shown) [Example 50, 2-[7-(3,4-Dimethoxyphenyl)-7-[(4-methylphenyl)thio]-heptyl]-1,2,3,4-tetrahydro-6,7-dimethoxyisoquinoline], for which the “Relative Tumor Growth Day 21” value in data set [2] (setting [3]) is 7.86; in data set [2] (setting [4]) it was 8.76; in data set [2] (setting [5]) it was 7.08; in data set [2] (setting [8]), 6.87; in data set [2] (setting [7]), 10.30.

Regarding `COc1ccc(CC2c3cc(OC)c(OC)cc3CCN2CCCCCC(C#N)(Sc2ccc(C)cc2)c2ccc(OC)c(OC)c2)cc1OC` (stereo not drawn) [Example 55, α-(3,4-Dimethoxyphenyl)-1-[(3,4-dimethoxyphenyl)-methyl]-3,4-dihydro-6,7-dimethoxy-α-[(4-methylphenyl)-thio]-2(1H)-isoquinolineheptanenitrile], the “Relative Tumor Growth Day 21” value was found to be 12.20 in data set [2] (setting [4]), 12.37 in data set [2] (setting [5]) and 7.15 in data set [2] (setting [8]).

As for `COc1ccc(C(CCCCCN2CCc3cc(OC)c(OC)cc3C2)SC2CCCCC2)cc1OC` (stereo not shown) [Example 61, 2-[6-(Cyclohexylthio)-6-(3,4-dimethoxyphenyl)hexyl]-1,2,3,4-tetrahydro-6,7-dimethoxyisoquinoline], the “Relative Tumor Growth Day 21” value in data set [2] (setting [4]) was found to be 8.66; in data set [2] (setting [5]), 6.86; in data set [2] (setting [7]) it was 8.88.

With `COc1ccc(C(C#N)(CCCCCN2CCc3cc(OC)c(OC)cc3C2)SC2CCCCC2)cc1OC` (stereo not drawn) [Example 62, α-(Cyclohexylthio)-α-(3,4-dimethoxyphenyl)-3,4-dihydro6,7-dimethoxy-2(1H)-isoquinolineheptane nitrile], the “Relative Tumor Growth Day 21” value in data set [2] (setting [4]) is recorded as 9.47; in data set [2] (setting [5]), 6.08; in data set [2] (setting [7]), 10.17. For the same compound, the “toxicity remark (tox), Day 14” value in data set [2] (setting [9]) is listed as “tox”. Further, the “toxicity remark (tox), Day 21” value in data set [2] (setting [9]) is “tox”.

As for `COc1ccc(C(CCCCCN2CCc3cc(OC)c(OC)cc3C2)SC(C)(C)C)cc1OC` (stereo not shown) [Example 66, 2-[6-(3,4-Dimethoxyphenyl)-6[(1,1-dimethylethyl)thio]hexyl]-1,2,3,4-tetrahydro-6,7-dimethoxyisoquinoline], the figures for the “Relative Tumor Growth Day 21” value in data set [2] (setting [5]) and in data set [2] (setting [8]) were 8.17 and 7.07, respectively.

For the compound `COc1ccc(C(CCCCCCN2CCc3cc(OC)c(OC)c(OC)c3C2)Sc2ccc(C)cc2)cc1OC` (stereo not shown) [Example 67, 2-[7-(3,4-Dimethoxyphenyl)-7-[(4-methylphenyl)thio]-heptyl]-1,2,3,4-tetrahydro-6,7,8-trimethoxyisoquinoline], the “Relative Tumor Growth Day 21” value amounted to 11.52 in data set [2] (setting [4]), 7.76 in data set [2] (setting [5]), 8.55 in data set [2] (setting [8]) and 9.81 in data set [2] (setting [7]).

As for `COc1ccc(C(CCCCCCN2CCc3cc(OC)c(OC)cc3C2)Sc2ccc(C)cc2)cc1O` (stereo not shown) [Example 72, 5-[7-(3,4-Dihydro-6,7-dimethoxy-2(1H)-isoquinolinyl)-1[(4-methylphenyl)thio]heptyl]-2-methoxyphenol], the “Relative Tumor Growth Day 21” value in data set [2] (setting [7]) stood at 9.58.

On to `COc1cc2c(cc1OC)CN(CCCCCCC(Sc1ccc(C)cc1)c1ccc(OC)c(OCCn3ccnc3)c1)CC2` (stereo not shown) [Example 74], for which the “Relative Tumor Growth Day 21” value is recorded as 9.11 in data set [2] (doxorubicin 8 mg/kg IV + compound 25 mg/kg/dose SC at -2 h and +2 h, listed as Ex-74); 9.18 in data set [2] (doxorubicin 8 mg/kg IV + compound 50 mg/kg/dose SC at -2 h and +2 h, listed as Ex-74); 9.00 in data set [2] (doxorubicin 8 mg/kg IV + compound […] SC at -2 h and +2 h, listed as Ex-74).

On to `COc1cc2c(cc1OC)CN(CCCCCCC(Sc1ccc(C)cc1)c1ccc(OC)c(OCCn3ccnc3)c1)CC2` (stereo not shown) [Example 75, 1,2,3,4-Tetrahydro-2-[7-[3-[2-(1H-imidazol-1-yl)-ethoxy]-4-methoxyphenyl]-7-[(4-methylphenvl]thio]-heptyl-6,7-dimethoxyisoquinolinedihydrochloride], for which the “Relative Tumor Growth Day 21” value amounted to 11.05 in data set [2] (doxorubicin 8 mg/kg IV + compound 25 mg/kg/dose SC at -2 h and +2 h, listed as Ex-75, dihydrochloride); 9.12 in data set [2] (doxorubicin 8 mg/kg IV + compound 50 mg/kg/dose SC at -2 h and +2 h, listed as Ex-75, dihydrochloride); 6.74 in data set [2] (doxorubicin 8 mg/kg IV + compound 100 mg/kg/dose SC at -2 h and +2 h, listed as Ex-75, dihydrochloride); 7.70 in data set [2] (doxorubicin 8 mg/kg IV + compound 200 mg/kg/dose SC at -2 h and +2 h, listed as Ex-75, dihydrochloride); 14.21 in data set [2] (doxorubicin 8 mg/kg IV + compound […] SC at -2 h and +2 h, listed as Ex-75, dihydrochloride).

Take `CCC(CCCCCN1CCc2cc(OC)c(OC)cc2C1)(Sc1ccc(C)cc1)c1ccc(OC)c(OC)c1` (stereo not shown) [Example 78, 2-[6-(3,4-Dimethoxyphenyl)-6-[(4-methylphenyl)thio]-octyl]-1,2,3,4-tetrahydro-6,7-dimethoxyisoquinoline]: the “Relative Tumor Growth Day 21” value in data set [2] (setting [3]) came to 10.14; in data set [2] (setting [7]) it was 10.27.

As for `COc1ccc(C(C#N)(CCCCCN2Cc3cc(Cl)c(Cl)cc3C2)Sc2ccc(C)cc2)cc1OC` (stereo not shown) [Example 81], in data set [2] (setting [7]), the “Relative Tumor Growth Day 21” value amounted to 9.52.

With `COc1cc2c(cc1OC)CN(CCCCCC(Sc1ccc(C)cc1)c1ccc3c(c1)OCO3)CC2` (stereo not shown) [Example 89], the “Relative Tumor Growth Day 21” value in data set [2] (setting [3]) is 8.02; in data set [2] (setting [4]), 9.40; in data set [2] (setting [5]) it was 11.04; in data set [2] (setting [8]) it was 6.04; in data set [2] (setting [7]) it was 10.70.

Take `COc1cc2c(cc1OC)CN(CCCCCC(Sc1ccc(C)cc1)c1ccc(OC(F)(F)F)cc1)CC2` (stereo not shown) [Example 92, 1,2,3,4-Tetrahydro-6,7-dimethoxy-2-[6-[(4-methyl-phenyl]thio]-6-[trifluoromethoxy)phenyl]hexylisoquinoline]: the “Relative Tumor Growth Day 21” value is on record as 12.05 in data set [2] (setting [3]); 11.75 in data set [2] (setting [4]); 10.48 in data set [2] (setting [5]); 8.71 in data set [2] (setting [8]); 12.75 in data set [2] (setting [7]).
